We go through 19 compounds from EP0074229A1, “Triazole gastric anti-secretory agents” (PFIZER INC., priority 1981, dated 1983).

The term inhibition in vivo denotes the share of the control response that was lost under treatment. For orientation: Kb means the affinity of an antagonist, worked out from how it opposes an agonist.

Each structure is given as a SMILES string.

Experiment [1] has as its system gastric acid secretion. The experiment can be described thus: gastric antisecretory activity in pentagastrin-stimulated Heidenhain pouch dogs. Type of experiment: in vivo. The following applies: conscious Heidenhain pouch dogs, pentagastrin infusion, drug given intravenously; for inhibition in vivo at up to 10 mg/kg: Canis lupus familiaris, iv, doses of 10 mg/kg or less, lowest acid output after drug vs mean output before drug; for inhibition of acid: dosage of 1 mg/kg. From the text:
The activity of the compounds of the present invention as antisecretory agents and histamine-H2 antagonists may be determined by standard pharmacological tests, including for example (1) measuring their ability to antagonize the actions of histamine which are not blocked by an antihistamine such as mepyramine and (2) measuring their ability to inhibit gastric acid secretion in the stomachs of Heidenhain pouch dogs that had previously been treated with pentagastrin in order to stimulate the secretion of gastric acid.
The gastric antisecretory activity of compounds of the present invention was determined in overnight fasted, conscious Heidenhain pouch dogs. Pentagastrin (Peptavlon-Ayerst) was used to stimulate acid output by continuous infusion into a superficial leg vein at doses earlier determined to stimulate near maximal acid output from the gastric pouch. Gastric juice was collected at 30 minute intervals following the start of a pentagastrin infusion and measured to the nearest 0.1 ml. Ten collections were taken for each dog during an experiment. Acid concentration was determined by titrating 1.0 ml of gastric juice to pH 7.4 with 0.1N sodium hydroxide using an Autoburette and a glass electrode pH meter (Radiometer).
[…] Gastric acid . antisecxetory effects were calculated by comparing the lowest acid output after drug administration with the mean acid output immediately before drug.

Experiment [2] has as its target T1, H2-receptor (Cavia porcellus, UniProt P47747).
T1 construct: from tissue; host or cells: isolated guinea pig right atria
The experiment can be described thus: histamine-H2 antagonist activity in isolated guinea pig right atria (histamine dose-response, dose-ratios, pA2). It is filed as cell-based, Guinea pigs. The following applies: antagonism of histamine-stimulated atrial rate, Krebs-Henseleit buffer pH 7.4, 32°. On the procedure: The histamine-H2 antagonist activity of compounds of the present invention was determined by the following procedure: • Guinea pigs are killed rapidly with a blow to the head, the heart removed and the right atria dissected free. […] Individual atrial contractions are followed with a force-displacement transducer connected to a cardiotachometer and Grass polygraph recorder. After obtaining a dose-response curve to histamine, the bath containing each atrium is flushed several times with fresh buffer and the atria re-equilibrated to basal rates. Following the return to basal rate, test compounds are added at selected final concentrations and the histamine dose-response curve is again determined in the presence of antagonist. Results are-expressed as dose-ratios, the ratio of histamine concentrations required to produce one-half of maximal stimulation in the presence and absence of antagonist, and the apparent dissociation constant of the H2-receptor antagonist pA2 is determined.

T1 sequence (P47747 whole entry): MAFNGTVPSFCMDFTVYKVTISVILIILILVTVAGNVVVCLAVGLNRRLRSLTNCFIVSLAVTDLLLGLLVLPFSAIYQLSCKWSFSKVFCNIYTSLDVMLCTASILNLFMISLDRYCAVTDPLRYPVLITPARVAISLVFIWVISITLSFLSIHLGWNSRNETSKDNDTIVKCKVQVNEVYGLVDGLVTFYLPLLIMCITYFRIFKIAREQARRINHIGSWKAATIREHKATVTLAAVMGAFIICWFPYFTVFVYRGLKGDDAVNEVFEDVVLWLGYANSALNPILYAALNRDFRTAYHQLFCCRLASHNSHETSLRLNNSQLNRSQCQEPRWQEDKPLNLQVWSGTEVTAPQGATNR

For the compound `CNc1cc(-c2nc(C)n[nH]2)ccn1` [Example 2, 3'-Methyl-5'-(2-methylamino-4-pyridyl)-1',2',4'-triazole], in experiment [1], the inhibition in vivo at up to 10 mg/kg is more than 50%. Take `CCNc1cc(-c2nc(C)n[nH]2)ccn1` [Example 3, 3'-Methyl-5'-(2-ethylamino-4-pyridyl)-1',2',4'-triazole]: the Kb in experiment [2] is not above 1000 nM. For the same compound, the inhibition in vivo at up to 10 mg/kg in experiment [1] was more than 50%. Take `CCNc1cc(-c2nc(CC)n[nH]2)ccn1` [Example 6, 3'-Ethyl-5'-(2-ethylamino-4-pyridyl)-1',2',4'-triazole hemi-hydrate]: the Kb in experiment [2] was not above 1000 nM.

`CCNc1cc(-c2nc(CO)n[nH]2)ccn1` [Example 8, 3'-Hydroxymethyl-5'-(2-ethylamino-4-pyridyl)-l',2',4'-triazole] showed an inhibition in vivo at up to 10 mg/kg in experiment [1] of more than 50%. On to `CCNc1cc(-c2nc(CCNC(=O)C=Cc3cnc(C)s3)n[nH]2)ccn1` [Example 12, N-[3-(2-methyl-5-thiazolyl)acryloyl]-2-[3'-(5'-(2-ethylamino-4-pyridyl)-1',2',4'-triazolyl)]ethylamine], for which the Kb in experiment [2] was not above 1000 nM. In addition, in experiment [1], the inhibition in vivo at up to 10 mg/kg is more than 50% and the inhibition of acid result is given as “greater than 50%”. Consider `CCNc1cc(-c2nc(CCNC(=O)COc3ccccc3)n[nH]2)ccn1` [Example 17, N-Phenoxyacetyl-2-(3'-(5'-(2-ethylamino-4-pyridyl)-1',2',4'-triazolyl))'ethylamine hemihydrate], for which the inhibition in vivo at up to 10 mg/kg in experiment [1] was more than 50%. The same measure, in the same setting: in the case of `CCNc1cc(-c2n[nH]c(CCNC(=O)CCc3ccccc3)n2)ccn1` [Example 20, N-(3-Phenylpropionyl)-2-(3'-(5'-(2-ethylamino-4-pyridyl)-1',2',4'-triazolyl))ethylamine] it was more than 50%. On the same count and under the same terms, in the case of `CCNc1cc(-c2n[nH]c(CCNC(=O)COc3cccnc3)n2)ccn1` [Example 21, N-(3-Pyridyloxyacetyl)-2-(3'-(5'-(2-ethylamino-4-pyridyl)-1',2',4'-triazolyl))ethylamine bishydrate] it was more than 50%. With `CCNc1cc(-c2n[nH]c(CCNC(=O)c3ccc(O)nc3)n2)ccn1` [Example 24, N-(6-Hydroxynicotinoyl)-2-(3'-(5'-(2-ethylamino-4-pyridyl)-1',2',4'-triazolyl))ethylamine monohydrate], in experiment [1], the inhibition in vivo at up to 10 mg/kg is more than 50%. As to `CCNc1cc(-c2n[nH]c(CCNC(=O)c3cccc(OC)c3)n2)ccn1` [Example 26, N-(3-Methoxybenzoyl)-2-(3'-(5'-(2-ethylamino-4-pyridyl)-1',2',4'-triazolyl))ethylamine], the inhibition in vivo at up to 10 mg/kg in experiment [1] was more than 50%.

Consider `CCNc1cc(C(=O)NCCc2nc(-c3ccnc(NCC)c3)n[nH]2)ccn1` [Example 27, N-(2-Ethylaminoisonicotinoyl)-2-(3'-(5'-(2-ethylamino-4-pyridyl)-1',2',4'-triazolyl))ethylamine], for which the inhibition in vivo at up to 10 mg/kg in experiment [1] is more than 50%.

On to `CCNc1cc(-c2n[nH]c(CCNC(=O)c3ccc(CN(C)C)o3)n2)ccn1` [Example 28], for which the Kb in experiment [2] was not above 1000 nM. Still for that read-out and setting: next, `CCNc1cc(-c2n[nH]c(CCNC(=O)c3csc(N=C(N)N)n3)n2)ccn1` [Example 29]: not above 1000 nM.

Consider `CCNc1cc(-c2n[nH]c(CCNC(=O)CCc3cccnc3)n2)ccn1` [Example 31, N-(3-Pyridylpropionoyl)-2-(3'-(5'-(2-ethylamino-4-pyridyl)-1',2',4'-triazolyl))ethylamine], for which the Kb in experiment [2] is not above 1000 nM. The compound also returned an inhibition in vivo at up to 10 mg/kg in experiment [1] of more than 50%. `CCNc1cc(-c2n[nH]c(CCNC(=O)c3cccnc3)n2)ccn1` [Example 34, N-Nicotinoyl-2-(3'-(5'-(2-ethylamino-4-pyridyl)-1',2',4'-triazolyl))ethylamine]: the antagonist dissociation constant (Kb) in experiment [2] is not above 1000 nM.

Take `CCNc1cc(-c2n[nH]c(CCNC(=O)c3ccncc3)n2)ccn1` [Example 35, N-(Isonicotinoyl)-2-(3'-(5'-(2-ethylamino-4-pyridyl)-1',2',4'-triazolyl))ethylamine]: the inhibition in vivo at up to 10 mg/kg in experiment [1] was more than 50%. Still for that read-out and setting: in the case of `CCNc1cc(-c2n[nH]c(CCNC(N)=O)n2)ccn1` [Example 36, N-(2-(3'-(5'-(2-Ethylamino-4-pyridyl)-1',2',4'-triazolyl))-ethyl)urea hydrate] it was more than 50%.

On to `CCNc1cc(-c2n[nH]c(CCNC(=NC#N)NC)n2)ccn1` [Example 39, N-Cyano-N'-(2-(3'-(5'-(2-ethylamino-4-pyridyl)-1',2',4'-triazolyl))ethyl)-N"-methylguanidine], for which the Kb in experiment [2] is not above 1000 nM. Turning to `CCNc1cc(-c2n[nH]c(CCNC(=S)NC)n2)ccn1` [Example 41, N'-(2-(3'-(5'-(2-Ethylamino-4-pyridyl)-1',2',4'-triazolyl))-ethyl)-N'-methylthiourea], the Kb in experiment [2] is not above 1000 nM. Also, in experiment [1], the inhibition of acid result is given as “greater than 50%”.
